Measurements as given in patent publication US9005903B2, “Immunomodulating compositions and methods of use thereof” (ImmuneXcite, Inc., priority 2008, dated 2015).

Tested on: IgG antibodies
Experiment: Serum IgG antibodies binding glucan
Settings: pooled serum from 10 human donors
Description: Serum from 10 unimmunized normal healthy donors was pooled
Pooled serum from 10 human donors, had high levels of IgG antibodies binding β-1,6-glucan, in contrast to low levels of IgG binding β-1,3-glucan. To test how prevalent is the anti-β-b 1,6-glucan antibodies in different donors, we collected sera from 12 individuals. The sera were used to opsonize β-1,6-glucan- or β-1,3-glucan-coated beads, and the beads were incubated with human neutrophils. Eleven of the twelve sera had the high response that the pool did, mediating efficient engulfment and ROS production (FIG. 2A, a representative serum of the high responders). One serum mediated a less efficient engulfment and ROS production (FIG. 2B, low responder).

| Substance | levels of IgG antibodies binding the glucan |
| --- | --- |
| β-1,3-glucan | low levels |
| β-1,6-glucan | high levels |
